The source of these data is patent US10421769B2, “Anticancer property studies of chiral palladium N-heterocyclic carbene complexes and process for preparation thereof” (Indian Institute of Technology Bombay, priority 2017, dated 2019).

Usually IC50 stands for the point on the concentration scale where inhibition reaches its midpoint.

Common to all, as to format: cell-based, human
Assay [1] deals with MCF-7 cells. Briefly: Sulforhodamine B assay, proliferation of MCF-7 cells. Conditions: for IC50: MCF-7 breast cancer cells, one cell cycle (48 h), SRB. As for the experimental part:
The present invention further provides a Sulforhodamine B assay method for investigating the anti-cancer efficacies of the compounds of the present Pd—NHC series on MCF-7, HeLa, A549, B16-F10 and EMT6/AR1 cancer cell lines and also for a comparative study on normal skin cell line L929 and normal epithelial breast cells MCF10A. The said Sulforhodamine B assay is conducted as per reported method (Skehan et al., J. Natl. Cancer Inst. 1990, 82, 1107).
Experiment: The anti-proliferative activity of the present palladium N-heterocyclic carbene complexes on two different cancer cell lines MCF-7 and HeLa is tested using Sulforhodamine B assay to reveal their anti-tumor properties. The evaluation of growth inhibition of these complexes is done from their IC50 values for the inhibition of cell growth. The IC50 values are compared with Cisplatin to determine any increase in efficacy.
Method: The effects of present series of palladium N-heterocyclic carbene complexes, such as compounds (1S,2S,5R)-(1-3)b and (1R,2R,5S)-(1-3)b; (1S,2S,5R)-(1, 3)c and (1R,2R,5S)-(1, 3)c on the proliferation of MCF-7 cells after one cell cycle are determined by Sulforhodamine B assay. In particular, 1×10^5 cells/mL are seeded in each well in 96-well plates for 24 h and then incubated without or with different concentrations of these complexes at 37° C. for one cell cycle (48 h). After incubation of cells with the complexes for one cell cycle, cell growth is stopped by the addition of 50% trichloroacetic acid and stained with 0.4% sulforhodamine B dissolved in 1% acetic acid. Unbound dye is removed by washing with 1% acetic acid, and the protein content is determined by measuring absorbance at 520 nm in a Bio-Rad model 680 microplate reader after extracting with 10 mM tris base. IC50 value is calculated as the concentration of the complex that inhibited the proliferation of cells by 50% relative to the untreated control cells. The anticancer activities of the present Pd—NHC compounds are graphically represented in accompanying FIG. 1.
The data obtained is graphically represented in accompanying FIG. 2.
In general terms: In SRB staining, fixed cells bind dye roughly in proportion to their protein.

Assay [2] has as its system MCF-7 cells. Briefly: Live dead assay by flow cytometry using propidium iodide. Conditions: for Dead % / Live %: 48 h. The method, then: MCF-7 cells (5 mL) were seeded in 60 mm cell culture dishes at a density of 1.5×10^5 cells/mL. Cells were incubated with 4 and 8 μM (1R,2R,5S)-1c for 48 h for live dead assay. After the required incubation, cells were processed and analyzed by flow cytometry. Percentage of live and dead MCF-7 cells in the absence and presence of 4 and 8 μM (1R,2R,5S)-1c and 4 μM cisplatin was determined by flow cytometry using propidium iodide (PI).

Assay [3] relates to p53 in MCF-7 cells. Briefly: Immunostaining for nuclear accumulation of p53. Conditions: MCF-7, 4 and 8 μM, 36 h. As for the experimental part: (§1) Experiment: MCF-7 (5×10^4 cells/well) cells were seeded on glass cover slip in a 24-well cell culture plate. After the cells were attached, they were incubated with 4 and 8 μM (1R,2R,5S)-1c for 36 h, fixed with 3.7% formaldehyde and processed for immunostaining. After fixing, cells were blocked with 2% BSA and incubated with anti-p53 IgG (1:300) and anti-p21 IgG (1:300) for 2 h at 37° C. Primary antibody incubation was followed by Alexa Fluor 568-conjugated sheep anti-mouse secondary IgG (1:400) incubation for 1 h at 37° C. Hoechst 33258 was used to stain the DNA. Immunofluorescence images were captured using Eclipse TE 2000U microscope (Nikon, Tokyo, Japan) at 40× magnification and processed by Image-Pro Plus software (Media Cybernetics, Silver Spring, Md.). To determine the percentage of cells with nuclear accumulation of p53 and p21, 1000 cells were scored in each case. The experiment was repeated thrice.

In assay [4] the test system is p21 in MCF-7 cells. Briefly: Immunostaining for nuclear accumulation of p21. Conditions: MCF-7, 4 and 8 μM, 36 h. The method, then:
as §1

Entries after “also recorded” stand apart in the source; their conditions may differ. Like-named read-outs stand apart in the source and are kept apart here.

“trans-[1-(1R)-menthyl-4-(ethyl)-1,2,4-triazol-5-ylidene]2Pd(OCOCF3)2 [(1R,2R,5S)-1c]” yielded an IC50 of Cisplatin against MCF-7 as multiple of IC50 of the complex in assay [1] (MCF-7) of 27 times. In addition, the IC50 came to 0.55 ± 0.02 µM in assay [1] (read-out: IC50 (μM), MCF-7) and 0.55 ± 0.02 µM in assay [1] (unit nM printed in cell or sentence, read-out: IC50, MCF-7 (values given in nM)). In assay [2] (MCF-7), the “Cell death (in words)” value is “leads to cell death in MCF-7 cells”. Besides, the Dead % in assay [2] (MCF-7, 4 μM) turned out to be 41 ± 2%; in assay [2] (MCF-7, 8 μM) it was 90 ± 1%. Moreover, the Live % came out at 59 ± 2% in assay [2] (MCF-7, 4 μM) and 10 ± 1% in assay [2] (MCF-7, 8 μM). The “Nuclear accumulation of p53 (in words)” value in assay [3] is reported as “leads to the nuclear accumulation of p53”. The “Nuclear accumulation of p21 (in words)” value in assay [4] is on record as “nuclear accumulation of p21; also recorded: transcriptionally activates p21”.
